Publication PMC11521726, “Surface plasmon resonance, molecular docking, and molecular dynamics simulation studies of lysozyme interaction with tannic acid” (Food Science & Nutrition, 2024)

Molecular target: T1, Chicken egg white lysozyme (CEWLZM) (Gallus gallus, UniProt P00698)
T1 construct: gene LYZ
Experiment: SPR kinetics, CEWLZM amine-coupled on MUA gold chip, TA […], PBS pH […]°C
Type: binding

T1 sequence (P00698 19-147): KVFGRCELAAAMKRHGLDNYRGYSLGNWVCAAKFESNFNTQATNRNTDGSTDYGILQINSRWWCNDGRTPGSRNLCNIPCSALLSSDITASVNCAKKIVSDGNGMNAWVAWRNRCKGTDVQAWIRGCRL

Kd: 41.7 µM
Compound: O=C(OC[C@H]1O[C@@H](OC(=O)c2cc(O)c(O)c(OC(=O)c3cc(O)c(O)c(O)c3)c2)[C@H](OC(=O)c2cc(O)c(O)c(OC(=O)c3cc(O)c(O)c(O)c3)c2)[C@@H](OC(=O)c2cc(O)c(O)c(OC(=O)c3cc(O)c(O)c(O)c3)c2)[C@@H]1OC(=O)c1cc(O)c(O)c(OC(=O)c2cc(O)c(O)c(O)c2)c1)c1cc(O)c(O)c(OC(=O)c2cc(O)c(O)c(O)c2)c1 [TA, tannic acid]
